Test results reported in patent publication US20180057465A1, “Inhibitors of Necroptosis” (Catalyst Therapeutics Pty Ltd, priority 2015, published 2018).

Key:
[1] = tested on: U937 human histiocytic leukemia cell line; experiment: Assay 1: inhibition of TSQ induced necroptosis, 96 well plate format; type: cell-based
Description: For in vitro analysis, the necroptosis inhibition may be determined by assays used to measure TSQ-induced necroptosis, as described in the biological tests defined herein.
(§1) Assay 1: Screening Compounds for Inhibition of TSQ Induced Necroptosis, 96 Well Plate Format.
(§2) Cell Line ID: […] human histiocytic leukemia cell line.
(§3) Cell Concentration (cells/well): 35,000 per well in 120 μL of media, counted and plated immediately prior to addition of inhibitor and death stimuli. Final well volume of 150 μL after addition of compounds and death stimuli
(§4) Cell growth medium: HTRPMI (WEHI Media kitchen, contains L-Glutamine and penicillin, streptomycin)—supplemented with 7.4% v/v FCS (Gibco, Precision Plus. Lot #1221437)
(§5) Incubation time (hours): 48 hours following addition of compounds and death stimuli
(§6) Compound Concentrations—Log Titrations:
(§7) DMSO final concentration (% v/v): 1.2% in 10 μM well to 0.2% in the control well.
Compounds that are in the Death Stimulation Cocktail and Their Final Concentrations:
hTNF-Fc (100 ng/ml)—produced by standard procedures as shown in Bossen et al., J Biol Chem, 2006, 281(20), 13964-13971.
Compound A (500 nM)—Smac mimetic, Tetralogic
Q-VD-OPh (10 μM)—MP Biomedicals
(§8) Cells treated with PI staining (1 μg/ml) and analysed by flow cytometry

[2] = tested on: U937 human histiocytic leukemia cell line; experiment: Off-target effect (cell based assay), reported with assay 1
Description: as §1, §2, §3, §4, §5, §6, §7, §8

[3] = U-937, comparison tables of the description, values as in Table 1 (assay 1), read-out: IC50 (nM) Necroptosis inhibition
[4] = U-937, comparison tables of the description, values as in Table 1 (assay 1), read-out: IC50 (nM) Off-Target Effect
[5] = U-937, Table 1, assay 1, hTNF-Fc 100 ng/ml, Compound A 500 nM, Q-VD-OPh 10 μM, 48 hours, PI staining, flow cytometry, read-out: Inhibition of TSQ-induced necroptosis (cell based assay) IC50
[6] = U-937, Table 1, assay 1, read-out: Off-target effect (cell based assay) IC50

IC50 [2, 4] [nM] | IC50 [2, 6] [nM] | SMILES | IC50 [1, 3] [nM] | IC50 [1, 5] [nM]
 | 4680 | Cc1ccc(Nc2nccc(N(C)c3ccc(NC(=O)Nc4ccc(OC(F)(F)F)cc4)cc3)n2)cc1CN(C)C [Compound 1, 1-(4-((2-((3-((dimethylamino)methyl)-4-methylphenyl)amino)pyrimidin-4-yl)(methyl)amino)phenyl)-3-(4-(trifluoromethoxy)phenyl)urea] |  | 53
2110 | 2110 | CN(c1ccc(NC(=O)Nc2ccc(OC(F)(F)F)cc2)cc1)c1nc(Nc2cccc(S(N)(=O)=O)c2)ncc1Cl [Compound 2, 3-((5-Chloro-4-(methyl(4-(3-(4-(trifluoromethoxy)phenyl)ureido)phenyl)amino)pyrimidin-2-yl)amino) benzenesulfonamide] | 29.5 | 29.5
791 |  | CN(c1ccc(NC(=O)Nc2cc(C(F)(F)F)ccc2F)cc1)c1ccnc(Nc2cccc(S(N)(=O)=O)c2)n1 [Compound 3 from AU 2014903569, reference compound] |  | 
> 10000 | > 10000 | CNC(=O)c1cc(Nc2nccc(N(C)c3ccc(NC(=O)Nc4ccc(OC(F)(F)F)cc4)cc3)n2)ccc1C [Compound 3, N-2-Dimethyl-5-((4-(methyl(4-(3-(4-(trifluoromethoxy)phenyl)ureido)phenyl)amino)pyrimidin-2-yl)amino)benzamide] | 93.1 | 93.1
 | 7410 | Cc1ccc(Nc2nccc(N(C)c3ccc(NC(=O)Nc4ccc(OC(F)(F)F)cc4)cc3)n2)cc1C(N)=O [Compound 4, 2-Methyl-5-((4-(methyl(4-(3-(4-(trifluoromethoxy)phenyl)ureido)phenyl)amino)pyrimidin-2-yl)amino) benzamide] |  | 154
 | 3110 | CN(c1ccc(NC(=O)Nc2ccc(OC(F)(F)F)cc2)cc1)c1nc(Nc2cccc(S(N)(=O)=O)c2)ncc1F [Compound 5, 3-((5-Fluoro-4-(methyl(4-(3-(4-(trifluoromethoxy)phenyl)ureido)phenyl)amino)pyrimidin-2-yl)amino) benzenesulfonamide] |  | 30
5070 |  | CN(c1ccc(NC(=O)Nc2ccc(OC(F)(F)F)cc2)cc1)c1nc(Nc2cccc(S(N)(=O)=O)c2)ncc1C(F)(F)F [Compound 6a, 3-((4-(Methyl(4-(3-(4-(trifluoromethoxy)phenyl)ureido)phenyl)amino)-5-(trifluoromethyl)pyrimidin-2-yl)amino)benzenesulfonamide] | > 10000 | 
 | > 10000 | Cc1ccc(Nc2nccc(N(C)c3ccc(NC(=O)Nc4ccc(OC(F)(F)F)cc4)cc3)n2)cc1N1CCCC1=O [Compound 7] |  | 51.8
> 10000 | > 10000 | CN(c1ccc(NC(=O)Nc2ccc(OC(F)(F)F)cc2)cc1)c1ccnc(Nc2cccc(N3CCCC3=O)c2)n1 [Compound 8, 1-(4-(Methyl(2-((3-(2-oxopyrrolidin-1-yl)phenyl)amino)pyrimidin-4-yl)amino)phenyl)-3-(4-(trifluoromethoxy)phenyl)urea] | 75.4 | 75.4
 | > 10000 | COCCNC(=O)c1cc(Nc2nccc(N(C)c3ccc(NC(=O)Nc4ccc(OC(F)(F)F)cc4)cc3)n2)ccc1C [Compound 9, N-(2-Methoxyethyl)-2-methyl-5-((4-(methyl(4-(3-(4-(trifluoromethoxy)phenyl)ureido)phenyl)amino)pyrimidin-2-yl)amino)benzamide] |  | 97.3
506 | 506 | CN(c1ccc(NC(=O)Nc2cc(F)cc(C(F)(F)F)c2)cc1)c1ccnc(Nc2cccc(S(N)(=O)=O)c2)n1 [Compound 10, 3-((4-((4-(3-(3-fluoro-5-(trifluoromethyl)phenyl)ureido)phenyl)(methyl)amino)pyrimidin-2-yl)amino)benzenesulfonamide] | < 1 | < 1
 | 1350 | CN(c1ccc(NC(=O)Nc2ccc(OC(F)(F)F)cc2)cc1)c1ccnc(Nc2cccc(-c3nnn(C)n3)c2)n1 [Compound 11, 1-(4-(Methyl(2-((3-(2-methyl-2H-tetrazol-5-yl)phenyl)amino)pyrimidin-4-yl)amino)phenyl)-3-(4-(trifluoromethoxy)phenyl)urea] |  | 7.5
> 10000 | > 10000 | CNC(=O)c1cc(Nc2ncc(F)c(N(C)c3ccc(NC(=O)Nc4ccc(OC(F)(F)F)cc4)cc3)n2)ccc1C [Compound 12, 5-((5-Fluoro-4-(methyl(4-(3-(4-(trifluoromethoxy)phenyl)ureido)phenyl)amino)pyrimidin-2-yl)amino)-N,2-dimethylbenzamide] | 10.1 | 10.1
 | 1630 | CNC(=O)c1cc(Nc2nccc(N(C)c3ccc(NC(=O)Nc4ccc(Cl)c(C(F)(F)F)c4)cc3)n2)ccc1C [Compound 14, 5-((4-((4-(3-(4-Chloro-3-(trifluoromethyl)phenyl)ureido)phenyl)(methyl)amino)pyrimidin-2-yl)amino)-N,2-dimethylbenzamide] |  | 8.9
 | 103 | CNC(=O)c1cc(Nc2ncc(F)c(N(C)c3ccc(NC(=O)Nc4cc(C(F)(F)F)ccc4F)cc3)n2)ccc1C [Compound 15, 5-(5-fluoro-4-((4-(3-(2-fluoro-5-(trifluoromethyl)phenyl)ureido)phenyl)(methyl)amino)pyrimidin-2-ylamino)-N,2-dimethylbenzamide] |  | < 1
 | 1230 | CNC(=O)c1cc(Nc2nccc(N(C)c3ccc(NC(=O)Nc4cc(F)cc(C(F)(F)F)c4)cc3)n2)ccc1C [Compound 16, 5-(4-((4-(3-(3-fluoro-5-(trifluoromethyl)phenyl)ureido)phenyl)(methyl)amino)-pyrimidin-2-ylamino)-N,2-dimethylbenzamide] |  | 10.8
 | 5670 | CNC(=O)c1cc(Nc2nccc(N(C)c3ccc(NC(=O)Nc4ccc(OC(F)(F)F)cc4)cc3)n2)ccc1N1CCOCC1 [Compound 17, N-methyl-5-((4-(methyl(4-(3-(4-(trifluoromethoxy)phenyl)ureido)phenyl)amino)pyrimidin-2-yl)amino)-2-morpholinobenzamide] |  | 38.3
 | > 10000 | Cc1ccc(Nc2nccc(N(C)c3ccc(NC(=O)Nc4ccc(OC(F)(F)F)cc4)cc3)n2)cc1CN1CCOCC1 [Compound 18, 1-(4-(methyl(2-((4-methyl-3-(morpholinomethyl)phenyl)amino)pyrimidin-4-yl)amino)phenyl)-3-(4-(trifluoromethoxy)phenyl)urea] |  | 514
 | > 10000 | CN(c1ccc(NC(=O)Nc2ccc(OC(F)(F)F)cc2)cc1)c1ccnc(Nc2cccc(O)c2)n1 [Compound 19, 1-(4-((2-(3-hydroxyphenylamino)pyrimidin-4-yl)(methyl)amino)phenyl)-3-(4-(trifluoromethoxy)phenyl)urea] |  | 1160
 | > 10000 | COc1cccc(Nc2nccc(N(C)c3ccc(NC(=O)Nc4ccc(OC(F)(F)F)cc4)cc3)n2)c1 [Compound 20, 1-(4-((2-(3-methoxyphenylamino)pyrimidin-4-yl)(methyl)amino)phenyl)-3-(4-(trifluoromethoxy)phenyl)urea] |  | 504
3600 |  | Cc1ccc(Nc2nccc(N(C)c3ccc(NC(=O)Nc4ccc(OC(F)(F)F)cc4)cc3)n2)cc1S(N)(=O)=O [Compound 21 from AU 2014903569, reference compound] | 72.7 | 
 | > 10000 | CN(c1ccc(NC(=O)Nc2ccc(OC(F)(F)F)cc2)cc1)c1ccnc(Nc2cccc(C#N)c2)n1 [Compound 21, 1-(4-((2-(3-cyanophenylamino)pyrimidin-4-yl)(methyl)amino)phenyl)-3-(4-(trifluoromethoxy)phenyl)urea] |  | 476
 | > 10000 | CN(c1ccc(NC(=O)Nc2ccc(OC(F)(F)F)cc2)cc1)c1ccnc(Nc2cccc(N)c2)n1 [Compound 22, 1-(4-((2-(3-aminophenylamino)pyrimidin-4-yl)(methyl)amino)phenyl)-3-(4-(trifluoromethoxy)phenyl)urea] |  | 427
 |  | CNC(=O)c1cc(Nc2nccc(N(C)c3ccc(NC(=O)Nc4cc(F)cc(C(F)(F)F)c4)cc3)n2)ccc1N1CCN(C)CC1 [Compound 31] |  | 13
 |  | CNC(=O)c1cc(Nc2nccc(N(C)c3ccc(NC(=O)Nc4cc(F)cc(C(F)(F)F)c4)cc3)n2)ccc1OCCN1CCCC1 [Compound 32, 5-((4-((4-(3-(3-fluoro-5-(trifluoromethyl)phenyl)ureido)phenyl)(methyl)amino)pyrimidin-2-yl)amino)-N-methyl-2-(2-(pyrrolidin-1-yl)ethoxy)benzamide] |  | 40

SMILES | IC50 [2, 4] [nM] | IC50 [2, 6] [nM] | IC50 [1, 3] [nM] | IC50 [1, 5] [nM]
CN(c1ccc(NC(=O)Nc2ccc(OC(F)(F)F)cc2)cc1)c1ccnc(Nc2cccc(S(N)(=O)=O)c2)n1 [Compound 1 from AU 2014903569, reference compound] | 3570 |  | 67.9 | 
